Results: US6235754A, “Methods and compositions for protecting animals and humans against attack and infestation by arthropod and helminth parasites” (American Cyanamid Company, priority 1999, dated 2001)
Read-outs that look alike come from different tables or passages of the source.

Assays:
Format in all cases: in vivo
[1] = tested on: adult, Pyrethroid-susceptible horn fly (Haematobia irritans); test: Adult pyrethroid-susceptible horn fly, treated filter paper (Table III); conditions: topical, 6 h, read-out: 6 Hour % Mortality
Protocol: Test doses are expressed as μg of test substance per cm^2 of filter paper.
1) Prepare solutions of test compound in acetone such that 800 or 1000 μL contains the amount necessary to obtain the desired dose rate.
2) Pipette 800 or 1000 μL of test solution onto filter paper.
3) Filter papers are dried under a fume hood.
4) When dry, filter papers are placed in the petri dish tops. Dishes are generally held about 24 hours before test organism is added.
5) Two- to five-day-old horn flies (pyrethroid-susceptible or -resistant) which have had two or more blood meals are used in the assay. Flies are collected into a small vial from the holding cage. Vials are then chilled in a freezer for about 4 minutes to immobilize the flies. Immobilized flies are then distributed to petri dish bottoms, 12 to 25 flies per dish, then dishes are closed and inverted.
6) As soon as the flies become mobile (about 5 minutes), they are examined to detect any flies that are dead or injured. This number is subtracted from total number of flies in the dish.
7) Petri dishes are held at room temperature and examined at the desired time intervals which might be 10 minutes to 6 hours.
8) All dead flies are recorded at each examination time. A fly is considered dead if it cannot walk even though it may still be moving.
10) Percent mortality at any time period is calculated using the following formula: […]
Number of dead flies-number dead @5 min/Total number of flies-number dead
Percent mortality is then corrected for control mortality using Abbot's formula.

[2] = tested on: Ctenocephalides felis (cat flea); test: Contact activity against the adult cat flea (Table I); conditions: topical
Protocol: (§1) This test is designed to evaluate the contact activity of test compounds against the adult cat flea. Test compounds are dissolved in 100% acetone to 300, 100, 10 and 1 ppm. 100 μL of each of these dilutions is added to the bottom of a 20 mL glass scintillation vial with a pipettor. The vial is allowed to dry under a fume hood for 15 minutes. The bottom of the vial measures 4.909 cm^2. The amount of test compound applied by each dilution equals 6.2, 2.0, 0.2 and 0.02 μg/cm^2, respectively. Newly emerged adult cat fleas are anesthetized with CO2 to immobilize, and are counted into the scintillation vials with forceps. Five fleas are placed in each vial. These tests are done in replicates of two or three so that there are 10 to 15 fleas per rate/compound. Mortality readings are taken 4 and 24 hours after placing the fleas in the vials. […] Percent mortality is then calculated for each treatment.

[3] = tested on: Dermacentor variabilis (American dog tick); test: Contact activity against the larval American dog tick (Table II); conditions: topical
Protocol: This test is designed to evaluate the contact activity of test compounds against the American dog tick. Test compounds are dissolved in 100% acetone to 1000, 300, 100, 10, 1 and 0.1 ppm. 100 μL of each of these dilutions is added to the bottom of a 20 mL glass scintillation vial with a pipettor. The vial is allowed to dry under a fume hood for 15 minutes. The vial is then turned in its side, and 250 μL of each dilution is applied to the sides of the vial. The vial is placed on a rolling machine and allowed to roll under the hood, coating the sides of the vial, until the acetone completely evaporates. The bottom of the vial measures 4.909 cm^2 and the sides measure 4.5 cm high×8.8 cm around, so that the total coated area of the scintillation vial measures 44.51 cm^2. The amount of test compound applied by each dilution equals 7.86, 2.36, 0.79, 0.079, 0.0079 and 0.00079 μg/cm^2, respectively. Unfed larval dog ticks are counted into the scintillation vials with a slightly damp paintbrush. Ten ticks are placed in each vial. These tests are done in replicates of two or three so that there are 20 to 30 ticks per rate/compound. Mortality readings are taken 4 and 24 hours after placing the ticks in the vials. To read the test, the vial is placed under a magnifying glass and tapped gently. […] Percent mortality is then calculated for each treatment.

[4] = tested on: Bovicola spp. (biting louse); test: Activity against the adult biting louse (Table VI); conditions: dose 2.0 μg/cm^2
Protocol: This test is designed to evaluate the activity of test compounds against the biting louse. Test compounds are dissolved in 100% acetone to 300, 100 and 10 ppm. 100 μL of each of these dilutions is added to the bottom of a 20 mL glass scintillation vial with a pipettor. The vial is allowed to dry under a fume hood for 15 minutes. The bottom of the vial measures 4.909 cm^2. The amount of test compound applied by each dilution equals 6.1, 2.0 and 0.2 μg/cm^2, respectively. Included in all tests are two to three replications of untreated vials. Lice are collected from the host animal and are used within 4 hours. The lice are counted into the scintillation vials with a slightly damp paintbrush. Five adult lice are placed in each vial. These tests are done in replicates of two or three so that there are 10 to 15 lice per rate/compound. Mortality readings are taken at 2 and 4 hours after placing the lice in the vials. To read the test, the vial is placed under a magnifying glass. […] Percent mortality is then calculated for each treatment.

[5] = tested on: Ctenocephalides felis (cat flea); test: whole plant or invertebrate; conditions: topical, 24 h, read-out: 24 Hour % Mortality
Protocol: as §1
This test evaluates the synergistic effect of piperonyl butoxide on the formula I compounds of this invention. Piperonyl butoxide (PBO) is added in an amount of 1.5% to a 1,000 ppm solution of a test compound in acetone. Dilutions are then made with acetone to provide solutions containing 300, 100, 10 and 1 ppm of the test compound and 0.45%, 0.15%, 0.015% and 0.0015% piperonyl butoxide, respectively. Solutions containing 1,000, 300, 100, 10 and 1 ppm of the test compound alone are used as the control. […]

[6] = tested on: Musca domestica (house fly); test: Activity against the adult house fly (Table V)
Protocol: This test is designed to evaluate the activity of test compounds against the house fly. Test compounds are dissolved in 100% acetone to 1000, 300, 100, 10 and 1 ppm. 100 μL of each of these dilutions is added to the bottom of a 20 mL glass scintillation vial with a pipettor. The vial is allowed to dry under a fume hood for 15 minutes. The vial is then turned on its side, and 250 μL of each dilution is applied to the sides of the vial. The vial is placed on a rolling machine and allowed to roll under the hood, coating the sides of the vial, until the acetone completely evaporates. The bottom of the vial measures 4.909 cm^2 and the sides measure 4.5 cm high×8.8 cm around, so that the total coated area of the scintillation vial measures 44.51 cm^2. The amount of test compound applied by each dilution equals 7.86, 2.36, 0.79, 0.079, and 0.0079 μg/cm^2, respectively. Included in all tests are two to three replications of untreated vials. Adult house flies which are five to seven days old are chilled in a freezer for five minutes to immobilize, and are placed on a sorting platform which provides a steady stream of CO2 to keep the flies immobile. Five flies are counted into each scintillation vial with forceps. The top of the vial is plugged with a wad of sheet cotton sufficient to contain the flies. These tests are done in replicates of two to four so that there are 10 to 20 flies per rate/compound. Mortality readings are taken 1 and 4 hours after placing the flies in the vials. Flies which are unable to stand when disturbed are considered dead. Percent mortality is then calculated for each treatment.

[7] = 4 h, read-out: 4 Hour % Mortality
[8] = 24 h, read-out: 24 Hour % Mortality
[9] = 4 hours, dose 0.079 μg/cm^2, read-out: 4 Hour % Mortality
[10] = 4 hours, dose 0.790 μg/cm^2, read-out: 4 Hour % Mortality
[11] = 4 hours, dose 2.360 μg/cm^2, read-out: 4 Hour % Mortality
[12] = 4 hours, dose 7.860 μg/cm^2, read-out: 4 Hour % Mortality
[13] = 24 hours, dose 0.079 μg/cm^2, read-out: 24 Hour % Mortality
[14] = 24 hours, dose 0.790 μg/cm^2, read-out: 24 Hour % Mortality
[15] = 24 hours, dose 2.360 μg/cm^2, read-out: 24 Hour % Mortality
[16] = 24 hours, dose 7.860 μg/cm^2, read-out: 24 Hour % Mortality
[17] = 1 h, read-out: 1 Hour % Mortality

F/C(=C\Cc1ccc(F)c(Oc2ccc(F)cc2)c1)C(c1ccc(Cl)cc1)C1CC1 (racemic) [Compound 18]
mortality at 0.625 µg/cm2 [1]: 4% | mortality at 1.25 µg/cm2 [1]: 36% | mortality at 2.5 µg/cm2 [1]: 94% | mortality at 5 µg/cm2 [1]: 99% | mortality at 10 µg/cm2 [1]: 100%

F/C(=C\Cc1ccc(F)c(Oc2ccccc2)c1)C(c1ccc(Cl)cc1)C1CC1 (stereo not drawn) [Compound 5, 1-[1-(p-Chlorophenyl)-2-fluoro-4-(4-fluoro-3-phenoxyphenyl)-2-butenyl]cyclopropane, (Z)-]
mortality at 0.02 µg/cm2 [2, 7]: 34% | mortality at 0.2 µg/cm2 [2, 7]: 39% | mortality at 2 µg/cm2 [2, 7]: 79% | mortality at 6.2 µg/cm2 ([2]; 4 hours, dose 6.20 μg/cm^2, read-out: 4 Hour % Mortality): 98% | mortality at 0.02 µg/cm2 [2, 8]: 69% | mortality at 0.2 µg/cm2 [2, 8]: 81% | mortality at 0.00079 µg/cm2 ([3]; 4 hours, dose 0.00079 μg/cm^2, read-out: 4 Hour % Mortality): 100% | mortality at 0.0079 µg/cm2 ([3]; 4 hours, dose 0.0079 μg/cm^2, read-out: 4 Hour % Mortality): 100% | mortality at 0.079 µg/cm2 [3, 9]: 100% | mortality at 0.79 µg/cm2 [3, 10]: 100% | mortality at 2.36 µg/cm2 [3, 11]: 100% | mortality at 7.86 µg/cm2 [3, 12]: 100% | mortality at 0.00079 µg/cm2 ([3]; 24 hours, dose 0.00079 μg/cm^2, read-out: 24 Hour % Mortality): 100% | mortality at 0.0079 µg/cm2 ([3]; 24 hours, dose 0.0079 μg/cm^2, read-out: 24 Hour % Mortality): 100% | mortality at 0.079 µg/cm2 [3, 13]: 100% | mortality at 0.79 µg/cm2 [3, 14]: 100% | mortality at 2.36 µg/cm2 [3, 15]: 100% | mortality at 7.86 µg/cm2 [3, 16]: 100% | 2 Hour % Mortality [4]: 92% | mortality at 2 µg/cm2 [5]: 100% | mortality at 6.2 µg/cm2 [5]: 100%

CCOc1ccc(C(/C(F)=C/Cc2ccc(F)c(Oc3ccccc3)c2)C2CC2)cc1 (stereo not drawn) [Compound 10, 1-[1-(p-Ethoxyphenyl)-2-fluoro-4-(4-fluoro-3-phenoxyphenyl)-2-butenyl]cyclopropane, (Z)-]
mortality at 0.02 µg/cm2 [2, 7]: 10% | mortality at 0.2 µg/cm2 [2, 7]: 68% | mortality at 2 µg/cm2 [2, 7]: 70% | mortality at 6.2 µg/cm2 [2, 7]: 100% | mortality at 0.02 µg/cm2 [2, 8]: 20% | mortality at 0.2 µg/cm2 [2, 8]: 95% | mortality at 2 µg/cm2 [2, 8]: 100% | mortality at 6.2 µg/cm2 [2, 8]: 100% | mortality at 0.079 µg/cm2 [3, 9]: 100% | mortality at 0.79 µg/cm2 [3, 10]: 100% | mortality at 2.36 µg/cm2 [3, 11]: 100% | mortality at 7.86 µg/cm2 [3, 12]: 100% | mortality at 0.079 µg/cm2 [3, 13]: 100% | mortality at 0.79 µg/cm2 [3, 14]: 100% | mortality at 2.36 µg/cm2 [3, 15]: 100% | mortality at 7.86 µg/cm2 [3, 16]: 100% | mortality at 0.079 µg/cm2 [6, 17]: 20% | mortality at 0.79 µg/cm2 [6, 17]: 20% | mortality at 2.36 µg/cm2 [6, 17]: 40% | mortality at 0.079 µg/cm2 [6, 7]: 60% | mortality at 2.36 µg/cm2 [6, 7]: 100% | mortality at 0.79 µg/cm2 [6, 10]: 75%
